In general, half-life refers to the time in which the quantity being followed falls by half. What is called microsomal CLint is the rate of metabolic loss divided by the concentration. A high value points to rapid turnover. The inhibition is the relative decrease from the control value, in per cent. For orientation: MIC means the lowest concentration that inhibits growth of the organism.

Data set [1] can be described thus: in vitro. The note with it: human, liver microsomes, pH 7.4.
Method: (§4) For without cofactors, 20 µL of PBS was added instead of pre-incubated cofactors. […] At each specified time, a 100 µL sample was taken, processed through a sample extraction procedure, and submitted for LC-MS/MS analysis ([35]). Half-life (t1/2) of test/control items was determined using the following equation
(§5) where, elimination rate constant (k) = −(slope of linear regression curve).
Data set [2] can be described thus: in vitro. The note with it: rat, liver microsomes, pH 7.4. For orientation: Liver microsomes are a subcellular fraction often used to study metabolism.
Method: as §4, §5
Data set [3] is described as follows: in vitro. The note with it: mouse, liver microsomes, pH 7.4.
Method: as §4, §5
The target of a further data set is T1, CYP1A2 (Homo sapiens, UniProt P05177).
T1 sequence (P05177 1-516): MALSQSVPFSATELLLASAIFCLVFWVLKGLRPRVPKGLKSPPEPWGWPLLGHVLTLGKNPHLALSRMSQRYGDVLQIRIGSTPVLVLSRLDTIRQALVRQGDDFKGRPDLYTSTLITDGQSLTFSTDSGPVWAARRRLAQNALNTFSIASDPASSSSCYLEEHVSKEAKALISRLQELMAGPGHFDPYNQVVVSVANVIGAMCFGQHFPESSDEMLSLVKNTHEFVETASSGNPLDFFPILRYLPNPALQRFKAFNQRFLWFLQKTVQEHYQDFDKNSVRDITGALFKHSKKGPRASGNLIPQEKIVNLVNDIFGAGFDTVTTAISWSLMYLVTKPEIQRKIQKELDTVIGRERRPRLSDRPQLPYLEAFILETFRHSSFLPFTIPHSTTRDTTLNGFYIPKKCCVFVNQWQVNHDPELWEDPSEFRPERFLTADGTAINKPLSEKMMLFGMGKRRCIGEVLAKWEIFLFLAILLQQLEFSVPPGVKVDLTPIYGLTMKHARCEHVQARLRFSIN
The data set is described as follows: in vitro. The data set is classed as biochemical. The note with it: human, % inhibition CYP 1A2. The method, then: (§1) The CYP inhibition assay was performed for test/control inhibitor items in duplicates using a 96-well fluorescence plate. An example of the preparation of CYP inhibition is given below in Table 8.
(§2) The plate with CYP master premix with test/control was incubated to allow the test/control samples to interact with CYP enzyme for 10 ± 1 min at 25°C under shaking conditions (400 rpm) using Thermomixer. The assay was initiated by adding 10 µL of a substrate and NADP^+ mixture to all wells, including a vehicle control and an assay blank. […] After incubation, the reaction was quenched by adding 50 µL of stop reagent (0.5 M Tris base) to each well.

A further data set addresses CYP2D6 (Homo sapiens, UniProt P10635). The data set is described as follows: CYP inhibition assay, recombinant isoform, fluorescence. Type of data set: biochemical. The note with it: human, recombinant CYP2D6. The method, then:
as §1, §2

The next data set has as its target CYP2C9 (Homo sapiens, UniProt P11712). The description is as above. Type of data set: biochemical. The note with it: human, read-out: % inhibition CYP 2C9. Here is the method:
as §1
The plate with CYP master premix with test/control was incubated to allow the test/control samples to interact with CYP enzyme for 10 ± 1 min at 25°C under shaking conditions (400 rpm) using Thermomixer. The assay was initiated by adding 10 µL of a substrate and NADP^+ mixture to all wells, including a vehicle control and an assay blank. The plate was then incubated at 25°C for 25 min with shaking at 400 rpm using a thermomixer. After incubation, the reaction was quenched by adding 50 µL of stop reagent (0.5 M Tris base) to each well. Fluorescence was measured using a microplate reader at excitation/emission wavelengths of 415/460 nm, respectively ([37]).

Data set [4] in a line: Intravenous acute toxicity in mice. The data set is classed as in vivo, Balb/c mice. The note with it: 18 mg/kg i.v. The method, then:
In total, 8–10 week old female Balb/c mice (n = 3) were administered tridecaptin M starting at 15 mg/kg, 25 mg/kg, 50 mg/kg, and 100 mg/kg. […] In this study, we administered 18 mg/kg of colistin to mice intravenously. […] Later, in the second set, intermediate concentrations of 20 mg/kg, 25 mg/kg, 30 mg/kg, 35 mg/kg, and 40 mg/kg doses were also administered to n = 4 mice. In these groups, blood was collected at 24 h post administration or immediately after visible movement stopped (40 mg/kg group), serum was separated and pooled together for each group n = 4, and biochemical serum tests were conducted.

Data set [5] deals with K. pneumoniae ATCC 700603. The data set is described as follows: Peritonitis infection model for intravenous efficacy in Balb/c mice. Type of data set: in vivo, Klebsiella pneumoniae. The note with it: single i.v. dose 5 mg/kg, 4 h post-infection. Here is the method: Balb/c mice (n = 6), 8-10 weeks old, are rendered neutropenic with cyclophosphamide as in previous experiments. A bacterial load of K. pneumoniae ATCC 700603 standard strain corresponding to ≈10^7 CFU/mL was used, and 100 μL was administered intraperitoneally to cause multi-organ infection conditions. At 4 h, the pre-treatment group was euthanized, and the right kidney of each mouse was harvested, homogenized, serially diluted, and spotted on MHA plates to determine bacterial CFU count per kidney. Simultaneously, at 4 h, the remaining groups were administered 5 mg/kg colistin, 5 mg/kg tridecaptin M, 10 mg/kg tridecaptin M, and vehicle control (PBS); 24 h after treatment, the remaining groups were euthanized, and the CFU count in the right kidney was determined the same as the 4 h pre-treatment group.

A further data set has as its system K. pneumoniae AH-16. As to the kind of experiment: Mucin peritonitis survival model in BALB/c mice. The data set is classed as in vivo, Klebsiella pneumoniae. The note with it: 5 mg/kg s.c., three doses at 2, 12, 24 h post-infection. Here is the method:
The survival study was performed by following a method described earlier, with some modifications; 8–10 week old, female BALB/c mice, 10 mice in each group, were infected with 100μL (OD600nm = 1) of K. pneumoniae AH-16 bacterial suspension prepared in porcine mucin 5% via intraperitoneal injection. Mice were injected subcutaneously with tridecaptin M (10 mg/kg) and colistin (5 mg/kg). The treatment was given in three doses at 2 h, 12 h, and 24 h post-infection to ensure a 15 mg/kg/day maximum dose limit for colistin. The survival or death of mice was monitored and recorded every 12 h for 7 days ([41]).

The conditions of data set [6]: cited from earlier work.
The next data set deals with E. coli. The data set is classed as cell-based, Escherichia coli. Here is the method: (§3) The MIC for all isolates was determined using the broth microdilution method. This involved preparing CA-MHB medium and serially diluting antibiotic solutions by a factor of two. The test organism was adjusted to a concentration of ≈5 × 10^5 CFU/mL. In a sterile 96-well microtiter plate, 100 µL of CA-MHB, along with 100 µL of each antibiotic, was added, and serial dilutions were made. A 100 µL suspension of the organism was added to each well and mixed, resulting in a total reaction volume of 200 µL per well. The plate was then incubated at 37°C for 16–18 h. The MIC was identified as the lowest concentration of antibiotic that prevented any visible growth of the organism ([16]).

The next data set has as its system K. pneumoniae. Type of data set: cell-based, Klebsiella pneumoniae. The method, then:
as §3

CYP2D6, sequence (P10635 whole entry, canonical isoform): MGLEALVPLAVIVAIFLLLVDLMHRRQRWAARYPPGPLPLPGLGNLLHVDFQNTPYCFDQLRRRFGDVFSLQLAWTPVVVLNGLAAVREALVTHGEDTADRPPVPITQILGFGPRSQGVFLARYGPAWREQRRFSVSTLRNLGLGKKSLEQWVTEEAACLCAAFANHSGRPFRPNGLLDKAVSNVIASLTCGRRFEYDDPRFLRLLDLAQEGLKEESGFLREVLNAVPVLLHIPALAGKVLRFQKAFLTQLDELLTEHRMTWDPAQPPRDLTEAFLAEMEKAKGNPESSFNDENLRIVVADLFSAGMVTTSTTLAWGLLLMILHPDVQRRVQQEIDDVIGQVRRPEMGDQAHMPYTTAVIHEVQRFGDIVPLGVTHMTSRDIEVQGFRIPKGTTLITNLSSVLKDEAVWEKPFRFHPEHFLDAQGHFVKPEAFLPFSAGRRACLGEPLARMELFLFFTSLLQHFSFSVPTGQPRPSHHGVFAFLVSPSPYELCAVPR
CYP2C9, sequence (P11712 whole entry): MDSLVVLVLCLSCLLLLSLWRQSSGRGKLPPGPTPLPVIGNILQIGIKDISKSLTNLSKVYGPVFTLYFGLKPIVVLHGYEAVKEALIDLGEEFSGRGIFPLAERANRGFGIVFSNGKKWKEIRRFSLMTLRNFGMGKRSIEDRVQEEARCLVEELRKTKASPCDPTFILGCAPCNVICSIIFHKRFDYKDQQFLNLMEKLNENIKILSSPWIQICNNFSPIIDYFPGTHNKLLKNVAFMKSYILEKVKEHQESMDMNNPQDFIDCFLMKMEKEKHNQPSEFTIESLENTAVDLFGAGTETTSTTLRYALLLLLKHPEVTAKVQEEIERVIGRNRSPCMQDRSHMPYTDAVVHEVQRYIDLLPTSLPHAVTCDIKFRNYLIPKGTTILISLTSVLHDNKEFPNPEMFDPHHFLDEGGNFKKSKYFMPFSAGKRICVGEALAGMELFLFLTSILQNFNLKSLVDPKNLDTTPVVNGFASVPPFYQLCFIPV

In the case of `O=C(O)Cc1ccccc1Nc1c(Cl)cccc1Cl` [Diclofenac, reference compound], in the data set “in vitro [1]”, the half-life amounted to 0.327 h, the intrinsic clearance (microsomal CLint) amounted to 70.6 µL/min/mg, the share remaining at 0.25 h came out at 53.2% and the fraction remaining at 0.5 h stood at 36.5%. In “in vitro [1]”, the share remaining at 1 h worked out at 11.6% and the fraction remaining at 2 h amounted to 8.3%. Besides, in “in vitro [2]”, the half-life was greater than 2 h, the microsomal CLint is less than 11.6 µL/min/mg, the fraction remaining at 0.25 h came to 102% and the amount remaining at 0.5 h is 88.6%. Moreover, in the data set “in vitro [2]”, the amount remaining at 1 h was 67.2% and the fraction remaining at 2 h amounted to 64.5%. Further, in “in vitro [3]”, the half-life is 1.54 h, the intrinsic clearance (microsomal CLint) is 15 µL/min/mg, the amount remaining at 0.5 h turned out to be 77.7% and the amount remaining at 1 h came out at 58.7%. In addition, in the data set “in vitro [3]”, the amount remaining at 2 h came out at 40.1%.
Take `Cc1nc2c([nH]1)c(=O)n(C)c(=O)n2Cc1ccco1` [Furafylline, reference compound]: on CYP1A2, the inhibition at 25 min, 0.01 µM was less than 0%; the inhibition at 25 min, 0.03 µM was less than 0%; the inhibition at 25 min, 0.1 µM was less than 0%; the inhibition at 25 min, 0.3 µM is 9.3%. In addition, at CYP1A2, the inhibition at 25 min, 1 µM amounted to 45.3%; the inhibition at 25 min, 3 µM amounted to 67.7%; the inhibition at 25 min, 10 µM turned out to be 90.8%.
With `C=C[C@H]1C[N@@]2CC[C@H]1C[C@@H]2[C@@H](O)c1ccnc2ccc(OC)cc12` [Quinidine, reference compound], the inhibition at 25 min, 0.003 µM at CYP2D6 was found to be 52.4%. The inhibition at 25 min, 0.0003 µM on CYP2D6 (0.0003 µM, read-out: % inhibition CYP 2D6) is less than 0%. Also, the inhibition at 25 min, 0.001 µM at CYP2D6 (0.001 µM, read-out: % inhibition CYP 2D6) was 14%. In addition, at CYP2D6 (0.01 µM, read-out: % inhibition CYP 2D6), the inhibition at 25 min, 0.01 µM was determined as 88.6%. Also, the inhibition at 25 min, 0.03 µM at CYP2D6 (0.03 µM, read-out: % inhibition CYP 2D6) stood at 92.6%. The inhibition at 25 min, 0.1 µM on CYP2D6 (0.1 µM, read-out: % inhibition CYP 2D6) is 93.4%. Moreover, the inhibition at 25 min, 0.3 µM on CYP2D6 (0.3 µM, read-out: % inhibition CYP 2D6) was determined as 92.5%. Moreover, the inhibition at 25 min, 1 µM on CYP2D6 (1 µM, read-out: % inhibition CYP 2D6) was found to be 95.7%.
In the case of `Nc1ccc(S(=O)(=O)Nc2ccnn2-c2ccccc2)cc1` [Sulfaphenazole, reference compound], the inhibition at 25 min, 0.001 µM on CYP2C9 (0.001 µM) is less than 0%. Further, the inhibition at 25 min, 0.003 µM on CYP2C9 (0.003 µM) was found to be 3.42%. For the same compound, the inhibition at 25 min, 0.01 µM at CYP2C9 (0.01 µM) was 11.3%. Moreover, the inhibition at 25 min, 0.03 µM at CYP2C9 (0.03 µM) is 27.2%. Besides, the inhibition at 25 min, 0.1 µM at CYP2C9 (0.1 µM) stood at 34.7%. Further, at CYP2C9 (0.3 µM), the inhibition at 25 min, 0.3 µM came out at 45.2%. The inhibition at 25 min, 1 µM at CYP2C9 (1 µM) came out at 53.5%. Also, at CYP2C9 (3 µM), the inhibition at 25 min, 3 µM stood at 57.9%.
For the compound colistin [reference compound], in [4], the “outcome of i.v. administration” value is on record as “immediately lethal”. The “efficacy (CFU/kidney) compared with tridecaptin M” value in data set [5] is “superior performance”. The “survival at the end of 7 days” value in the data set with K. pneumoniae AH-16 was found to be 40%. Further, the “subcutaneous dose known to be lethal to mice” value in [6] was “exceeding 36 mg/kg”. For the same compound, in data set [6] (colistin group of the same study), the “mortality in acute toxicity study” value was “all mice in the colistin group died within 24 h”. The MIC range was 0.25 to 1 µg/mL in the data set with E. coli (Col-S clinical isolates (52)) and 0.25 to 2 µg/mL against K. pneumoniae (Col-S (colistin sensitive) clinical isolates (72)). Besides, the MIC in the data set on E. coli (Std. QC strain ATCC 25922) came out at 0.25 µg/mL; in the data set with K. pneumoniae (Std. QC strain ATCC 700603) it was 0.5 µg/mL.

These data come from article PMC12486805, “Preclinical evaluation of tridecaptin M: in vitro and in vivo efficacy against colistin-resistant Gram-negative bacterial pathogens and pharmacokinetics” (Antimicrobial Agents and Chemotherapy, 2025).
